The assay has as its system α7 integrin (LacZ reporter in α7LacZ+/− myoblasts). The assay can be described thus: qHTS of the LOPAC library and MLSMR (online screen, α7LacZ+/− myoblasts). As to conditions: for activation at 0.307 µM / activation at 1.53 µM / activation at 7.66 µM / activation at 38.3 µM / Emax / EC50: Mus musculus, Myoblast; for activation at 0.307 µM: read-out: Activity at 0.307 uM [%] **; for activation at 1.53 µM: read-out: Activity at 1.530 uM [%] **; for activation at 7.66 µM: read-out: Activity at 7.660 uM [%] **; for activation at 38.3 µM: read-out: Activity at 38.30uM [%] **; for EC50: read-out: Fit LogAC50 (converted). (In general: In qHTS, concentration-response curves come from the screen itself.)

The mark [1] stands for this setting: 48 h, read-out: Fit Infinite Activity [%].

Read-outs that look alike come from different tables or passages of the source.

Consider `COC(=O)C1=C(C)N=C(C)/C(=C(/O)OC)C1c1ccccc1OCc1c(C)no[n+]1[O-]` (centres unmarked) [Compound 12], for which the EC50 was 2.82 µM. Further, under “48 h”, the activation at 0.307 µM is 12.3%, the activation at 1.53 µM came out at 36.5%, the activation at 7.66 µM was 84.6% and the activation at 38.3 µM came to 100%. In addition, the Emax under setting [1] came out at 102%.

`Cc1ccc(NCc2nnc(SCC(=O)Nc3nnc(C)s3)n2C)cc1` [Compound 51]: the EC50 was 10 µM. In addition, for the setting “48 h”, the activation at 0.307 µM is -27.9%, the activation at 1.53 µM was -17.6%, the activation at 7.66 µM came to 31.4% and the activation at 38.3 µM was determined as 249%. Further, under setting [1], the Emax is 250%.

`CCCCN(CCCC)CCNC(=O)c1cn(C)c2ccc(S(=O)(=O)N(C)C3CCCCC3)cc2c1=O` [Compound 157]: the EC50 was 10 µM. For the same compound, under “48 h”, the activation at 0.307 µM was -0.706%, the activation at 1.53 µM was -3.27%, the activation at 7.66 µM stood at 17.7% and the activation at 38.3 µM came out at 67.5%. For the same compound, the Emax under setting [1] was found to be 68.2%. Further, the Emax (read-out: Max Response [%]) was found to be 67.5%. The Score (Table 8 Compound data) was found to be 42.

With `COc1ccc2oc(C[S+]([O-])c3ccccc3)c(C(=O)O)c2c1` (centres unmarked) [Compound 109], the EC50 was 12.6 µM. Further, under “48 h”, the activation at 0.307 µM amounted to 5.2%, the activation at 1.53 µM was 10.1%, the activation at 7.66 µM stood at 20.9% and the activation at 38.3 µM was 174%. For the same compound, the Emax under setting [1] stood at 174%. Further, the Emax (read-out: Max Response [%]) turned out to be 174%.

Consider `CCOC(=O)Cc1csc(NC(=S)NC(=O)c2cc(OC)c(OC)c(OC)c2)n1` [Compound 20], for which the EC50 was 3.55 µM. Where the note is “48 h”, the activation at 0.307 µM is -18.1%, the activation at 1.53 µM is -4.46%, the activation at 7.66 µM was determined as 69.3% and the activation at 38.3 µM came out at 82.9%. Besides, under setting [1], the Emax amounted to 83.9%.

For `O=C(CNC(=O)c1cccc(F)c1)N/N=C/c1cc(Br)ccc1OCc1ccccc1` [Compound 216], the EC50 is 10 µM. For the setting “48 h”, the activation at 0.307 µM was determined as 8.28%, the activation at 1.53 µM came to 20.8%, the activation at 7.66 µM was 44% and the activation at 38.3 µM is 71.7%. Also, the Emax under setting [1] amounted to 94.4%. Besides, under “read-out: Max Response [%]”, the Emax is 71.7%.

As for `COc1ccc(CNC(=O)COC(=O)CCc2c[nH]c3ccccc23)cc1` [Compound 184], the EC50 is 10 µM. In addition, where the note is “48 h”, the activation at 0.307 µM was found to be 0%, the activation at 1.53 µM was -0.551%, the activation at 7.66 µM was determined as 26% and the activation at 38.3 µM turned out to be 83.9%. Further, the Emax under setting [1] turned out to be 85.5%. In addition, under “read-out: Max Response [%]”, the Emax came out at 83.9%.

For `CCOc1ccccc1NC(=O)c1cccc2c1C(=O)N(C1CCCCC1)C2` [Compound 15], the EC50 was 3.16 µM. Besides, where the note is “48 h”, the activation at 0.307 µM is -13.7%, the activation at 1.53 µM came out at 4.71%, the activation at 7.66 µM is 58% and the activation at 38.3 µM was 73.6%. In addition, the Emax under setting [1] was determined as 75.3%.

For `Cc1ccc(NC(=O)COc2ccccc2CNC(C)(C)CC(C)(C)C)cc1` [Compound 131], for the setting “48 h”, the activation at 0.307 µM came out at 10.7%, the activation at 1.53 µM amounted to 7.12%, the activation at 7.66 µM turned out to be 16.2% and the activation at 38.3 µM came to 182%. Further, the Emax under setting [1] was found to be 184%. The Emax (read-out: Max Response [%]) came out at 182%.

Regarding `COc1nccc(NCc2ccccc2)c1C#N` [Compound 169], the EC50 is 10 µM. Further, under “48 h”, the activation at 0.307 µM was -18.2%, the activation at 1.53 µM was -21.6%, the activation at 7.66 µM stood at 0.301% and the activation at 38.3 µM is 64.3%. For the same compound, under setting [1], the Emax came to 64.8%. The Emax (read-out: Max Response [%]) stood at 64.3%.

Take `O=C1CCc2cc(S(=O)(=O)Nc3ccc(C(F)(F)F)cc3)cc3c2N1CC3` [Compound 138]: for the setting “48 h”, the activation at 0.307 µM was -26.1%, the activation at 1.53 µM is -19.1%, the activation at 7.66 µM turned out to be 23.6% and the activation at 38.3 µM came out at 85.8%. Also, under setting [1], the Emax stood at 108%. Besides, for the setting “read-out: Max Response [%]”, the Emax worked out at 85.8%.

On to `CCCCNc1nnc(SCC(=O)c2c(N)n(CCC)c(=O)[nH]c2=O)s1` [Compound 69], for which the EC50 is 3.98 µM. Besides, under “48 h”, the activation at 0.307 µM stood at 0%, the activation at 1.53 µM was found to be 16.2%, the activation at 7.66 µM was 62.8% and the activation at 38.3 µM is 84.4%. The Emax under setting [1] was determined as 88.1%. For the setting “read-out: Max Response [%]”, the Emax was determined as 84.4%.

On to `O=C(Nc1ccc(N2CCN(C(=O)c3ccccc3F)CC2)cc1)c1cncc(Br)c1` [Compound 144], for which, where the note is “48 h”, the activation at 0.307 µM was determined as 8.54%, the activation at 1.53 µM worked out at 11.1%, the activation at 7.66 µM stood at 20.4% and the activation at 38.3 µM was determined as 103%. Further, the Emax under setting [1] amounted to 104%. In addition, the Emax (read-out: Max Response [%]) was 103%.

Turning to `C/N=c1\scc(-c2ccc(OC)cc2)n1/N=C(\C)c1cccnc1` [Compound 118], the EC50 is 5.01 µM. Moreover, where the note is “48 h”, the activation at 0.307 µM is -8.12%, the activation at 1.53 µM was determined as 2.29%, the activation at 7.66 µM was 48.7% and the activation at 38.3 µM was determined as 73.6%. In addition, under setting [1], the Emax came to 74.9%. The Emax (read-out: Max Response [%]) is 73.6%.

Regarding `O=C(COC(=O)c1cc2ccccc2oc1=O)Nc1ccc(F)cc1F` [Compound 60], the EC50 is 4.47 µM. Under “48 h”, the activation at 0.307 µM is -11%, the activation at 1.53 µM came out at 4.45%, the activation at 7.66 µM is 78.3% and the activation at 38.3 µM was 115%. Further, under setting [1], the Emax came to 116%. For the same compound, the Emax (read-out: Max Response [%]) turned out to be 115%.

On to `CCCCNC(=O)CSc1nnc(Cc2ccc(Cl)c(Cl)c2)c(O)n1` [Compound 34], for which the EC50 was 1.41 µM. Besides, for the setting “48 h”, the activation at 0.307 µM came out at 9.41%, the activation at 1.53 µM was found to be 43.8%, the activation at 7.66 µM is 74.3% and the activation at 38.3 µM was found to be 75.4%. Moreover, the Emax under setting [1] turned out to be 76.4%.

For `CCc1ccc(Sc2cc(C(=O)NCCN3CCOCC3)c3ccccc3n2)cc1` [Compound 214], where the note is “48 h”, the activation at 0.307 µM came to 13.2%, the activation at 1.53 µM was 16.1%, the activation at 7.66 µM was 43.9% and the activation at 38.3 µM is 101%. Further, under setting [1], the Emax worked out at 108%. Moreover, the Emax (read-out: Max Response [%]) turned out to be 101%.

Take `COC(=O)C1SCC2C(=O)N(Cc3ccc(F)cc3)CC(=O)N21` (centres unmarked) [Compound 187]: where the note is “48 h”, the activation at 0.307 µM was -53.6%, the activation at 1.53 µM was -42.4%, the activation at 7.66 µM is -1.79% and the activation at 38.3 µM amounted to 51.5%. Besides, under setting [1], the Emax came out at 65.7%. In addition, under “read-out: Max Response [%]”, the Emax was determined as 51.5%.

`CCc1ccc(N(C(=O)c2snc(C(N)=O)c2N)C(C(=O)NC2CCCC2)c2ccco2)cc1` (centres unmarked) [Compound 17]: the EC50 was 2.51 µM. In addition, under “48 h”, the activation at 0.307 µM was -18.3%, the activation at 1.53 µM turned out to be 9.37%, the activation at 7.66 µM is 52.7% and the activation at 38.3 µM came to 67.6%. In addition, the Emax under setting [1] was 71.4%.

Take `CCc1nnc(NC(=O)c2ccc(S(=O)(=O)NCC(C)C)cc2)s1` [Compound 66]: the EC50 was 12.6 µM. Besides, for the setting “48 h”, the activation at 0.307 µM came to 16.2%, the activation at 1.53 µM is 8.68%, the activation at 7.66 µM was found to be 32.8% and the activation at 38.3 µM came out at 225%. In addition, the Emax under setting [1] was determined as 227%. Moreover, the Emax (read-out: Max Response [%]) was found to be 225%.

For the compound `CCCn1c(-c2cc(OC)c(OC)c(OC)c2)nc2c1c(=O)[nH]c(=O)n2Cc1ccccc1` [Compound 54], the EC50 is 12.6 µM. For the same compound, under “48 h”, the activation at 0.307 µM worked out at 42%, the activation at 1.53 µM came to 58.6%, the activation at 7.66 µM was determined as 120% and the activation at 38.3 µM was 213%. Besides, the Emax under setting [1] is 262%. Also, for the setting “read-out: Max Response [%]”, the Emax was 213%.

Take `CSc1ncccc1C(=O)OCC(=O)c1cc(C)n(C)c1C` [Compound 134]: the EC50 is 10 µM. For the same compound, where the note is “48 h”, the activation at 0.307 µM is -21%, the activation at 1.53 µM is -23.9%, the activation at 7.66 µM is -0.0686% and the activation at 38.3 µM was 72.9%. Besides, the Emax under setting [1] was 72.9%. Further, the Emax (read-out: Max Response [%]) came out at 72.9%.

With `O=C(O)c1cc(/N=C/c2c(O)oc3ccccc3c2=O)ccc1O` [Compound 48], the EC50 was 7.08 µM. Moreover, for the setting “48 h”, the activation at 0.307 µM is -32%, the activation at 1.53 µM was -23.3%, the activation at 7.66 µM was determined as 76.6% and the activation at 38.3 µM is 165%. Moreover, the Emax under setting [1] stood at 179%.

With `COc1ccccc1-c1coc2c3c(ccc2c1=O)OC1CCCCN1C3` (centres unmarked) [Compound 3], the EC50 was 2.24 µM. Moreover, for the setting “48 h”, the activation at 0.307 µM is -34.2%, the activation at 1.53 µM was 9.57%, the activation at 7.66 µM worked out at 154% and the activation at 38.3 µM came to 159%. Besides, the Emax under setting [1] came out at 158%.

On to `CN(C)/C=N/c1nccc(-c2cccs2)n1` [Compound 121], for which the EC50 was 8.91 µM. For the same compound, under “48 h”, the activation at 0.307 µM was found to be 6.86%, the activation at 1.53 µM was found to be 8.46%, the activation at 7.66 µM came to 45% and the activation at 38.3 µM worked out at 92.6%. The Emax under setting [1] came to 97.8%. Also, under “read-out: Max Response [%]”, the Emax was found to be 92.6%.

With `NS(=O)(=O)c1ccc(NC(=O)c2ccc(CNS(=O)(=O)c3cc(C(F)(F)F)ccc3Cl)cc2)cc1` [Compound 207], the EC50 is 10 µM. Moreover, for the setting “48 h”, the activation at 0.307 µM came to 0.545%, the activation at 1.53 µM is 0%, the activation at 7.66 µM is 25.5% and the activation at 38.3 µM is 73.3%. Moreover, under setting [1], the Emax was found to be 75.5%. Also, the Emax (read-out: Max Response [%]) was 73.3%.

These data come from US9980943B2, “Methods of treating muscular dystrophy” (BOARD OF REGENTS OF THE NEVADA SYSTEM OF HIGHER EDUCATION, …, priority 2013, dated 2018).
